# Laboratory results published in patent US20190292179A1 (BRISTOL-MYERS SQUIBB COMPANY, priority 2016, published 2019).
# Target: T1, HIS-TGFβR1 T204D (Homo sapiens, UniProt P36897, T204D)
# T1 sequence (P36897 34-503 T204D): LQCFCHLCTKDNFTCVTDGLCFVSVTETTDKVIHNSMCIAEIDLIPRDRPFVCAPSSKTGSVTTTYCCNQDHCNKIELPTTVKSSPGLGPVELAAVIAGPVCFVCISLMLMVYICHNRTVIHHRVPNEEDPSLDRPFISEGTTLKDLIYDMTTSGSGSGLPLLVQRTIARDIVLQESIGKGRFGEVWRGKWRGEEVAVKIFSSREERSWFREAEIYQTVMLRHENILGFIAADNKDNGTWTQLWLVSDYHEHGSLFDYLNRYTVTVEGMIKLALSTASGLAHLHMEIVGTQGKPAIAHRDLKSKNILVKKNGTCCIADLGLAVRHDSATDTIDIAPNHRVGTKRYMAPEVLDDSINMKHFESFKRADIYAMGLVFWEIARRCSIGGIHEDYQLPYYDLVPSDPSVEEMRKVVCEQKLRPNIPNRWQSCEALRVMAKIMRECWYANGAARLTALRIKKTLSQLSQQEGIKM
# Assay: HTRF probe-displacement assay with HIS-TGFβR1 T204D
# Format: binding
# Details: 1 nM HIS-TGFβR1 T204D, labeled probe at Kd, 1 hour at room temperature
# Description: (§1) The reaction is incubated for 1 hour at room temperature and the HTRF signal was measured on an Envision plate reader (Ex: 340 nm; Em: 520 nm/495 nm). Inhibition data were calculated by comparison to no enzyme control reactions for 100% inhibition and vehicle-only reactions for 0% inhibition. The final concentration of reagents in the assay are 1 nM HIS-TGFβR1 T204D or HIS-TGFβR2 WT, 0.2 nM anti-HIS detection antibody, labeled small molecule probe (at Kd) and 0.5% DMSO. Dose response curves were generated to determine the concentration required inhibiting 50% of kinase activity (IC50). Compounds were dissolved at 10 mM in dimethylsulfoxide (DMSO) and evaluated at eleven concentrations. IC50 values were derived by non-linear regression analysis.
row,SMILES,IC50
1,"Cc1cccc(-c2c(-c3ccc4ncc(C#N)n4c3)c(C(C)C)nn2C)n1 [Example 117, 6-(3-isopropyl-1-methyl-5-(6-methylpyridin-2-yl)-1H-pyrazol-4-yl)imidazo[1,2-a]pyridine-3-carbonitrile]",0.009 µM
2,"CCOC(=O)c1[nH]nc(-c2ccc(F)cc2)c1-c1ccc2nccn2c1 [Example 132, ethyl 3-(4-fluorophenyl)-4-(imidazo[1,2-a]pyridin-6-yl)-1H-pyrazole-5-carboxylate]",0.758 µM
3,"CC(C)(O)c1[nH]nc(-c2ccc(F)cc2)c1-c1ccc2nccn2c1 [Example 137, 2-(3-(4-fluorophenyl)-4-(imidazo[1,2-a]pyridin-6-yl)-1H-pyrazol-5-yl)propan-2-ol]",0.153 µM
4,"CCOC(=O)c1[nH]nc(-c2cccc(C)n2)c1-c1ccc2ncc(C#N)n2c1 [Example 138, ethyl 4-(3-cyanoimidazo[1,2-a]pyridin-6-yl)-3-(6-methylpyridin-2-yl)-1H-pyrazole-5-carboxylate]",0.002 µM
5,"Cc1cccc(-c2n[nH]c(C(F)F)c2-c2ccc3nccn3c2)n1 [Example 140, 6-(5-(difluoromethyl)-3-(6-methylpyridin-2-yl)-1H-pyrazol-4-yl)imidazo[1,2-a]pyridine]",0.001 µM
6,"CC(=O)Nc1[nH]nc(-c2ccc(F)cc2)c1-c1ccc2ncc(C(N)=O)n2c1 [Example 143, 6-(5-acetamido-3-(4-fluorophenyl)-1H-pyrazol-4-yl)imidazo[1,2-a]pyridine-3-carboxamide]",0.027 µM

# The remaining lines, values ahead:
row,IC50,SMILES
1,0.115 µM,"Cc1cccc(-c2c(-c3ccc4nccn4c3)c(C(C)C)nn2C)n1 [Example 120, 6-(3-isopropyl-1-methyl-5-(6-methylpyridin-2-yl)-1H-pyrazol-4-yl)imidazo[1,2-a]pyridine]"
2,0.281 µM,"CCOC(=O)c1[nH]nc(-c2ccc(F)cc2)c1-c1ccc2ncc(C#N)n2c1 [Example 128, ethyl 4-(3-cyanoimidazo[1,2-a]pyridin-6-yl)-3-(4-fluorophenyl)-1H-pyrazole-5-carboxylate]"
3,1.76 µM,N#Cc1cnc2ccc(-c3c(-c4ccc(F)cc4)n[nH]c3C(=O)O)cn12 [Example 129]
4,0.145 µM,"N#Cc1cnc2ccc(-c3c(-c4ccc(F)cc4)n[nH]c3C(N)=O)cn12 [Example 130, 4-(3-cyanoimidazo[1,2-a]pyridin-6-yl)-3-(4-fluorophenyl)-1H-pyrazole-5-carboxamide]"
5,1.41 µM,"N#Cc1cnc2ccc(-c3c(-c4ccc(F)cc4)n[nH]c3C(=O)NC3CC3)cn12 [Example 131, 4-(3-cyanoimidazo[1,2-a]pyridin-6-yl)-N-cyclopropyl-3-(4-fluorophenyl)-1H-pyrazole-5-carboxamide]"
6,25.3 µM,"O=C(O)c1[nH]nc(-c2ccc(F)cc2)c1-c1ccc2nccn2c1 [Example 133, 3-(4-fluorophenyl)-4-(imidazo[1,2-a]pyridin-6-yl)-1H-pyrazole-5-carboxylic acid]"
7,0.023 µM,"C=C(C)c1[nH]nc(-c2ccc(F)cc2)c1-c1ccc2nccn2c1 [Example 136, 6-(3-(4-fluorophenyl)-5-(prop-1-en-2-yl)-1H-pyrazol-4-yl)imidazo[1,2-a]pyridine]"
8,0.002 µM,"CCOC(=O)c1[nH]nc(-c2cccc(C)n2)c1-c1ccc2nccn2c1 [Example 139, ethyl 4-(imidazo[1,2-a]pyridin-6-yl)-3-(6-methylpyridin-2-yl)-1H-pyrazole-5-carboxylate]"
9,0.274 µM,"CC(=O)Nc1[nH]nc(-c2ccc(F)cc2)c1-c1ccc2ncc(C#N)n2c1 [Example 142, N-(4-(3-cyanoimidazo[1,2-a]pyridin-6-yl)-3-(4-fluorophenyl)-1H-pyrazol-5-yl)acetamide]"

# Target: HIS-TGFβR2 WT (Homo sapiens, UniProt P37173)
# Sequence (P37173 23-567): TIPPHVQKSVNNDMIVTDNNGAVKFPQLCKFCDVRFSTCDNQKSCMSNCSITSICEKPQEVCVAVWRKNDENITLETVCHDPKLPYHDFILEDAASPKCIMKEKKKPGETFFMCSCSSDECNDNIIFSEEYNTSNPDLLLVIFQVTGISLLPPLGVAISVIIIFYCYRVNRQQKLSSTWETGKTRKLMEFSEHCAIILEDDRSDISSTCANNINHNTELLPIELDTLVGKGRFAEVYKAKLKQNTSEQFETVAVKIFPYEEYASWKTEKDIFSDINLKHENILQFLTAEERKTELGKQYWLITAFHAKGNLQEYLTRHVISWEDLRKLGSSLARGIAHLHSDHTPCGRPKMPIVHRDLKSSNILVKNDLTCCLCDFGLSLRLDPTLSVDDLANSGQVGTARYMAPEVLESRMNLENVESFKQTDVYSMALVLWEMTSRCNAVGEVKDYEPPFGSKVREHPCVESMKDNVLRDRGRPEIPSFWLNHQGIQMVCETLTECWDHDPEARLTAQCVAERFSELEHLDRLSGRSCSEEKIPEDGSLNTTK
# Assay: HTRF probe-displacement assay with HIS-TGFβR2 WT
# Format: binding
# Details: 1 nM HIS-TGFβR2 WT, labeled probe at Kd, 1 hour at room temperature
# Description: as §1
row,IC50,SMILES
1,0.193 µM,"NC(=O)c1cnc2ccc(-c3c[nH]nc3-c3cccc(C(F)F)n3)cn12 [Example 5, 6-(3-(6-(difluoromethyl)pyridin-2-yl)-1H-pyrazol-4-yl)imidazo[1,2-a]pyridine-3-carboxamide]"
2,0.259 µM,"N#Cc1cnc2ccc(-c3c[nH]nc3-c3cccc(F)n3)cn12 [Example 6, 6-(3-(6-fluoropyridin-2-yl)-1H-pyrazol-4-yl)imidazo[1,2-a]pyridine-3-carbonitrile]"
